Source: article PMC3984052 (Bioorganic & medicinal chemistry, 2014)

What follows are compounds tested on PrP^C in N2a-cl3 neuroblastoma cells that overexpress PrP^C. Settings: values not given.
Assay type: cell-based, mouse

Compound	Potency (EC50 by ELISA) in N2a-cl3 cells, in words
COc1cc(OC)cc(C(=O)Nc2ccc(I)cn2)c1 [IND85671]	potent
NC(=O)c1ccccc1NC(=O)c1cccnc1N1CCCCC1 [IND87406]	potent
CCOC(=O)c1[nH]c2c(c1C)C(=O)CC(c1ccco1)C2 (stereo not drawn) [IND87564]	potent
